From article PMC11013038, “Design, Synthesis, and Evaluation of B-(Trifluoromethyl)phenyl Phosphine–Borane Derivatives as Novel Progesterone Receptor Antagonists” (Molecules, 2024)

What was measured:
[1] = molecular target: T1, PR ligand-binding domain (LBD) (Homo sapiens, UniProt P06401); assay: PR LBD competitive binding assay (fluorescence polarization, PolarScreen kit); details: fluorescence polarization competition, 100 nM to 32 μM, Figure 5
T1 construct: purchased Invitrogen A15905
T1 sequence (P06401 679-913 limits assumed): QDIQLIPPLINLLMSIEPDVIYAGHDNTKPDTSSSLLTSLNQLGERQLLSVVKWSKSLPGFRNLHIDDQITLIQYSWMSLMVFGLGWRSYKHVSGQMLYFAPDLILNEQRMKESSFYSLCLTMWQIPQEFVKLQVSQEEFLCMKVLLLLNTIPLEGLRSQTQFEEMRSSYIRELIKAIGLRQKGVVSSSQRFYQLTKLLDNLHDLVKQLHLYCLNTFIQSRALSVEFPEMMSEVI
Protocol: The PR agonistic and antagonistic activities of the synthesized phosphine–borane derivatives were evaluated using an alkaline phosphatase assay with the T47D human breast cancer cell line. […] The basal alkaline phosphatase activity was also not affected by the tested compounds alone. […] The PR antagonistic activities of the compounds were assessed in the presence of 1 nM of P4 (5). We also calculated the molecular volume of each compound to investigate the structure–activity relationship (SAR). Table 2 summarizes the PR antagonistic activity and calculated volumes of the synthesized compounds. […] We investigated the binding affinity of the compounds toward the PR ligand-binding domain (LBD) using a fluorescence polarization assay system. […] We also investigated the activity of compounds 28 and 34 toward the androgen receptor (AR) by means of cell-proliferation promoting/inhibitory activity toward androgen-dependent SC-3 cells. […].
PR binding affinity was assessed using a PolarScreen Progesterone Receptor Competitor Assay Kit, Green (Invitrogen, Waltham, MA, USA, A15905) based on the manufacturer’s instruction. […] The fluorescence polarization value (mP) was measured at 485 nm/535 nm (excitation/emission) on a DTX 880 Multimode Detector (Beckman Coulter).

melting point [°C]	Structure (SMILES)	binding affinity toward PR LBD (in words) [1]
72.6 to 72.8	FC(F)(F)c1ccc([BH2-][P+](C2CC2)(C2CC2)C2CC2)cc1 [Compound 34, B-4-(Trifluoromethyl)phenyl Tricyclopropylphosphine–Borane]	exhibited significant affinity toward PR LBD
	C[P+](C)(C)[BH2-]c1ccc(C(F)(F)F)cc1 [Compound 28, B-4-(Trifluoromethyl)phenyl Trimethylphosphine–Borane]	did not show the affinity
